# ChEMBL document CHEMBL3407349, “The discovery of Polo-like kinase 4 inhibitors: identification of (1R,2S).2-(3-((E).4-(((cis).2,6-dimethylmorpholino)methyl)styryl). 1H.indazol-6-yl)-5'-methoxyspiro[cyclopropane-1,3'-indolin]-2'-one (CFI-400945) as a potent, orally active antitumor agent” (J Med Chem, 2015)
# Experiments:
# [1] = Half life in mouse liver microsomes
# Cytochrome P450 2D6 = Cytochrome P450 2D6 (Homo sapiens, UniProt P10635); assay: Inhibition of CYP2D6 (unknown origin) by fluorescence assay; format: ADME
# Chain of Cytochrome P450 2D6 (P10635 whole entry): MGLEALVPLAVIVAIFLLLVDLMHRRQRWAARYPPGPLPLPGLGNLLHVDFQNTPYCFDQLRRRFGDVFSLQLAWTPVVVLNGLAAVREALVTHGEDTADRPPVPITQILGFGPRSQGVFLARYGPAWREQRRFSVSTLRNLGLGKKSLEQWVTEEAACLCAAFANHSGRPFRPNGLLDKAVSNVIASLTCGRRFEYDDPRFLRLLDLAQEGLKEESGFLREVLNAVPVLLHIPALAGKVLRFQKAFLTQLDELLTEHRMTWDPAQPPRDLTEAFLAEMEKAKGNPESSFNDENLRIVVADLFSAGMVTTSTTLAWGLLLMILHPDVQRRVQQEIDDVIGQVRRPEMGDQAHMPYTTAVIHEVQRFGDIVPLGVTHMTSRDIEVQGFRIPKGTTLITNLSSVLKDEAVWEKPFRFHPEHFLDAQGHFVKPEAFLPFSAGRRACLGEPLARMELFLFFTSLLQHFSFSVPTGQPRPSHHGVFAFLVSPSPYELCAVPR
# [2] = Growth inhibition of human HMEC cells after 5 days by SRB assay; format: cell-based; details: HMEC cells
# Cytochrome P450 2C19 = Cytochrome P450 2C19 (Homo sapiens, UniProt P33261); assay: Inhibition of CYP2C19 (unknown origin) by fluorescence assay
# Chain of Cytochrome P450 2C19 (P33261 whole entry): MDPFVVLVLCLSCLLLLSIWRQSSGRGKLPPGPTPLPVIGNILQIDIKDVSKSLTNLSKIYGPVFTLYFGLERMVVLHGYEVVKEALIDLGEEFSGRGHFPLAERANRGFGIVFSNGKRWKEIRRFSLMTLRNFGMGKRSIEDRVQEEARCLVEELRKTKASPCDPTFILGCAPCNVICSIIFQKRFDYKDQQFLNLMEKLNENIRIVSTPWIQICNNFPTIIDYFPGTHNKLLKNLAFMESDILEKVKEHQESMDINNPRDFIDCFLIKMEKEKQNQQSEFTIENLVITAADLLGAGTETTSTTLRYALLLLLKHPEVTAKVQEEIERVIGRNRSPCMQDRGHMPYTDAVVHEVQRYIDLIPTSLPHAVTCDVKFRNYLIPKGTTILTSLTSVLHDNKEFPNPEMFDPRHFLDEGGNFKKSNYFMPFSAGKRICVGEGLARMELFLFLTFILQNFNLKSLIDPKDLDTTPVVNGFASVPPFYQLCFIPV
# Cytochrome P450 1A2 = molecular target: T1, Cytochrome P450 1A2 (Homo sapiens, UniProt P05177); assay: Inhibition of CYP1A2 (unknown origin) by fluorescence assay; format: ADME
# T1 sequence (P05177 whole entry): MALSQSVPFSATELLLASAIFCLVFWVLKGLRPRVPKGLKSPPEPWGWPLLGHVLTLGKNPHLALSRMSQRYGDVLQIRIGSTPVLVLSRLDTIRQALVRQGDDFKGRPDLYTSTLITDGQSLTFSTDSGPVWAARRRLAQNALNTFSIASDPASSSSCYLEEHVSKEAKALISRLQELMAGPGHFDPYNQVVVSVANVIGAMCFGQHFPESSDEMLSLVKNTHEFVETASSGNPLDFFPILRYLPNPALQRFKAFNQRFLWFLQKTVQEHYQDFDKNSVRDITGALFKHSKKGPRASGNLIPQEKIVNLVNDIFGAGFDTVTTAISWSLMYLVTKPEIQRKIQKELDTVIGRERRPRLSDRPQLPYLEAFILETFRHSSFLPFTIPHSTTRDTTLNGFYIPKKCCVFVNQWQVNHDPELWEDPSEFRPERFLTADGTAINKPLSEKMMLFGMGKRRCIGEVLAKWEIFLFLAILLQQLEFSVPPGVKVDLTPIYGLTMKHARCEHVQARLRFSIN
# HCC1954 = assay: Growth inhibition of human HCC1954 cells after 5 days by SRB assay; format: functional
# MCF7 = assay: Growth inhibition of human MCF7 cells after 5 days by SRB assay; format: functional
# [3] = Half life in human liver microsomes
# Cytochrome P450 3A4 [4] = molecular target: T2, Cytochrome P450 3A4 (Homo sapiens, UniProt P08684); assay: Inhibition of CYP3A4 (unknown origin) using DBF as substrate by fluorescence assay
# T2 sequence (P08684 whole entry): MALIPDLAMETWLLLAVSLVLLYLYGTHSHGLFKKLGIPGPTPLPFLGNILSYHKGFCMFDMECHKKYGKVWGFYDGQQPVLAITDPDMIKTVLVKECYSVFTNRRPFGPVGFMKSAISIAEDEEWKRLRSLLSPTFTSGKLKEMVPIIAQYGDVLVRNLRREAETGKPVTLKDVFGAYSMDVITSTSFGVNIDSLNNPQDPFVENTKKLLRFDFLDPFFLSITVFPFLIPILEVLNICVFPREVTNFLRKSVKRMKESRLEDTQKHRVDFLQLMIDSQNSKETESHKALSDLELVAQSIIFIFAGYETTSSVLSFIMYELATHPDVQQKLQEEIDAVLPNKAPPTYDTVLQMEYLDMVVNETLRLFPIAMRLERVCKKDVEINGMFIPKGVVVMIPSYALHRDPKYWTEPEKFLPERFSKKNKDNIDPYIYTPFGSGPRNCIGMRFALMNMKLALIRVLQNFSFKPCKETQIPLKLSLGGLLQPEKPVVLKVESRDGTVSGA
# Cytochrome P450 3A4 [5] = molecular target: T2, Cytochrome P450 3A4; assay: Inhibition of CYP3A4 (unknown origin) using BFC as substrate by fluorescence assay
# [6] = AUC in athymic CD1 nude mouse at 25 mg/kg, po by LC/MS/MS analysis; format: ADME, organism-based; set-up: dose 25 mg/kg, route oral; details: plasma
# Cytochrome P450 2C9 = Cytochrome P450 2C9 (Homo sapiens, UniProt P11712); assay: Inhibition of CYP2C9 (unknown origin) by fluorescence assay
# Chain of Cytochrome P450 2C9 (P11712 whole entry): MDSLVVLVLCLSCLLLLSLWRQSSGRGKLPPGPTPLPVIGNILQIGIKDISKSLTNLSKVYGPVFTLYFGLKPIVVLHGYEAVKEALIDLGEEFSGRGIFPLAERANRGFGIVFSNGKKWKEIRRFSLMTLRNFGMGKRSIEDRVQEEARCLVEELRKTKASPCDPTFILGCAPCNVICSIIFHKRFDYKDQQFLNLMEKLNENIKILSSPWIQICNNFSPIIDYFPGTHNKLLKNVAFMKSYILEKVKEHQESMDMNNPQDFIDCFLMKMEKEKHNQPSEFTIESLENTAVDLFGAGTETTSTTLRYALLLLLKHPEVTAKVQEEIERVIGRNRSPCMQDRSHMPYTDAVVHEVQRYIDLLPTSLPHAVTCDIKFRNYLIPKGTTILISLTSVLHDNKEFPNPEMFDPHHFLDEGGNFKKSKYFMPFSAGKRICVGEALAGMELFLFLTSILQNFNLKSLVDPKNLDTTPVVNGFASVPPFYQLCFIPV
# [7] = Cmax in athymic CD1 nude mouse at 25 mg/kg, po by LC/MS/MS analysis; format: ADME, organism-based; set-up: dose 25 mg/kg, route oral; details: in vivo
# MDA-MB-231 = assay: Growth inhibition of human MDA-MB-231 cells after 5 days by SRB assay; format: functional
# MDA-MB-468 = assay: Growth inhibition of human MDA-MB-468 cells after 5 days by SRB assay; format: functional
# [8] = molecular target: T3, Serine/threonine-protein kinase PLK4 (Homo sapiens, UniProt O00444); assay: Inhibition of PLK4 (unknown origin) by ELISA
# T3 sequence (O00444 whole entry): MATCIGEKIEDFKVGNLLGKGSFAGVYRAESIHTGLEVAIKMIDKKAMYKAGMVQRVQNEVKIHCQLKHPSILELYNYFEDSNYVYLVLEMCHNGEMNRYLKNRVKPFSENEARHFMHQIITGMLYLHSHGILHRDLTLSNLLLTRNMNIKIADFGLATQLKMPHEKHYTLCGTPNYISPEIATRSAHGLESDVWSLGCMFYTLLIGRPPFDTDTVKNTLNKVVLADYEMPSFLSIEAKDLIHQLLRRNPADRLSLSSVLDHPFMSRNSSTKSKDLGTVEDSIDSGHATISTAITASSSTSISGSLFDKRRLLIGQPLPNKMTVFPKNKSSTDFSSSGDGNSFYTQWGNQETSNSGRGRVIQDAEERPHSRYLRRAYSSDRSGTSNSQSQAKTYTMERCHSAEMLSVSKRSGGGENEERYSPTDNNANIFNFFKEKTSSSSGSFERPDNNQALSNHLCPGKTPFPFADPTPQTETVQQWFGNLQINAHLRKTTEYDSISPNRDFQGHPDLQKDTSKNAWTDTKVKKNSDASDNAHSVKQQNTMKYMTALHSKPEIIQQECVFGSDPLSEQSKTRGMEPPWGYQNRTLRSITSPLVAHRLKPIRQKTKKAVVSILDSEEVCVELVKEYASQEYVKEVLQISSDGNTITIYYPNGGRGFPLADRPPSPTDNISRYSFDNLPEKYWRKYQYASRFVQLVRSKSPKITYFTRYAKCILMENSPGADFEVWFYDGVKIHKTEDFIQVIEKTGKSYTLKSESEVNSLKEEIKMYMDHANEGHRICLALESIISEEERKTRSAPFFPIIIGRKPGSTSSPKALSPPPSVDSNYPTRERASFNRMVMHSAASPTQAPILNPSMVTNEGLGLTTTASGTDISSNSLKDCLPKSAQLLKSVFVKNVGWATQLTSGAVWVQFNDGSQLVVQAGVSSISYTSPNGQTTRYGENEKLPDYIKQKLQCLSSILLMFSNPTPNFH
# [9] = Half life in rat liver microsomes; details: liver microsomes
# [10] = Half life in dog liver microsomes; details: liver microsomes
# [11] = Homo sapiens, MDA-MB-231, 120 h
# [12] = Homo sapiens, MDA-MB-468, 120 h
SMILES,half-life ([1]; liver microsomes),inhibition (INH) (Cytochrome P450 2D6),GI50 at 120 h [2],IC50 (Cytochrome P450 2C19),inhibition (INH) (Cytochrome P450 1A2),"GI50 (HCC1954; Homo sapiens, HCC1954, 120 h)","GI50 (MCF7; Homo sapiens, MCF7, 120 h)",half-life ([3]; liver microsomes),IC50 (Cytochrome P450 3A4 [4]),AUC [6],IC50 (Cytochrome P450 2C9),Cmax [7],GI50 (MDA-MB-231; [11]),GI50 (MDA-MB-468; [12]),IC50 [8],other results
COc1ccc2c(c1)[C@]1(C[C@H]1c1ccc3c(/C=C/c4ccc(N5CCN(C)CC5)nc4)n[nH]c3c1)C(=O)N2,6 min,Not Active,47000 nM,1500 nM,Not Active,2 nM,< 1 nM,11 min,5600 nM,380 ng·h/mL,2000 nM,200 ng/mL,2600 nM,< 1 nM,–,IC50 (Cytochrome P450 3A4 [5]): 10000 nM
O=C1Nc2ccccc2[C@]12C[C@H]2c1ccc2c(/C=C/c3cccnc3)n[nH]c2c1,–,–,4400 nM,–,–,7500 nM,2000 nM,–,–,–,–,–,1000 nM,60 nM,–,–
COc1ccc2c(c1)[C@]1(C[C@H]1c1ccc3c(/C=C/c4ccc(CN(C)C)cc4)n[nH]c3c1)C(=O)N2,22 min,Not Active,41000 nM,2000 nM,Not Active,5000 nM,0.1 nM,36 min,7500 nM,640 ng·h/mL,3500 nM,300 ng/mL,2800 nM,< 1 nM,–,–
O=C1Nc2ccccc2[C@]12C[C@H]2c1ccc2c(/C=C/c3ccc(CN4CCCC4)cc3)n[nH]c2c1,–,–,3600 nM,–,–,26 nM,370 nM,–,–,–,–,–,250 nM,< 1 nM,–,–
O=C1Nc2ccccc2[C@]12C[C@H]2c1ccc2c(/C=C/c3ccc(CN4CCCCC4)cc3)n[nH]c2c1,–,–,20000 nM,–,–,5000 nM,< 1 nM,–,–,–,–,–,2200 nM,< 1 nM,–,–
CN1CCN(c2ccc(/C=C/c3n[nH]c4cc([C@@H]5C[C@@]56C(=O)N(C)c5ccccc56)ccc34)cn2)CC1,7 min,Not Active,–,1200 nM,Not Active,5 nM,20 nM,27 min,2900 nM,1600 ng·h/mL,3800 nM,700 ng/mL,600 nM,1 nM,1.3 nM,IC50 (Cytochrome P450 3A4 [5]): 300 nM
O=C1Nc2ccccc2[C@]12C[C@H]2c1ccc2c(/C=C/c3ccc(N4CCNCC4)cc3)n[nH]c2c1,–,Not Active,21000 nM,900 nM,Not Active,260 nM,20 nM,–,2800 nM,340 ng·h/mL,1700 nM,120 ng/mL,23 nM,2 nM,0.9 nM,half-life ([1]; microsomes): 19 min; half-life ([3]; microsomes): 46 min
CN(C)Cc1ccc(/C=C/c2n[nH]c3cc([C@@H]4C[C@@]45C(=O)N(C)c4ccccc45)ccc23)cc1,–,Not Active,8000 nM,1900 nM,Not Active,7 nM,1.5 nM,–,> 1000 nM,1100 ng·h/mL,2600 nM,510 ng/mL,750 nM,2 nM,–,half-life ([1]; microsomes): 12 min; half-life ([3]; microsomes): 44 min; IC50 (Cytochrome P450 3A4 [5]): 2300 nM
O=C1Nc2ccccc2[C@]12C[C@H]2c1ccc2c(/C=C/c3ccc(CN4CC[C@@H](F)C4)cc3)n[nH]c2c1,17 min,Not Active,7900 nM,1500 nM,Not Active,22 nM,34000 nM,52 min,–,1800 ng·h/mL,900 nM,790 ng/mL,5600 nM,6.7 nM,–,–
COc1ccc2c(c1)[C@]1(C[C@H]1c1ccc3c(/C=C/c4ccc(CN5CCCCC5)cc4)n[nH]c3c1)C(=O)N2,40 min,Not Active,50000 nM,1400 nM,Not Active,5000 nM,< 1 nM,49 min,5400 nM,1300 ng·h/mL,3400 nM,510 ng/mL,1600 nM,< 1 nM,–,IC50 (Cytochrome P450 3A4 [5]): > 1000 nM
O=C1Nc2ccccc2[C@]12C[C@H]2c1ccc2c(/C=C/c3cccc(CN4CCOCC4)c3)n[nH]c2c1,–,–,50000 nM,–,–,1600 nM,350 nM,–,–,–,–,–,2200 nM,130 nM,–,–
C[C@@H]1CN(Cc2cccc(/C=C/c3n[nH]c4cc([C@@H]5C[C@@]56C(=O)Nc5ccccc56)ccc34)c2)C[C@H](C)O1,–,–,–,–,–,84 nM,1300 nM,–,–,–,–,–,9600 nM,1100 nM,20 nM,–
O=C1Nc2ccccc2[C@]12C[C@H]2c1ccc2c(/C=C/c3ccc(CN4CC5CCC(C4)O5)cc3)n[nH]c2c1,–,–,–,–,–,53 nM,170 nM,–,–,–,–,–,4100 nM,61 nM,5.2 nM,–
O=C1Nc2ccccc2[C@]12C[C@H]2c1ccc2c(/C=C/c3ccc(CN4CCCOCC4)cc3)n[nH]c2c1,–,–,–,–,–,1800 nM,1000 nM,–,–,–,–,–,3000 nM,2 nM,–,–
C[C@@H]1CN(Cc2ccc(/C=C/c3n[nH]c4cc([C@@H]5C[C@@]56C(=O)Nc5ccccc56)ccc34)cc2)C[C@H](C)N1C,–,–,–,–,–,1300 nM,2500 nM,–,–,–,–,–,500 nM,10 nM,0.64 nM,–
COc1ccc2c(c1)[C@]1(C[C@H]1c1ccc3c(/C=C/c4ccc(CN5[C@H](C)CN(C)C[C@@H]5C)cc4)n[nH]c3c1)C(=O)N2,38 min,Not Active,–,810 nM,Not Active,2300 nM,2500 nM,> 60 min,1600 nM,2200 ng·h/mL,560 nM,1300 ng/mL,2200 nM,10 nM,0.39 nM,half-life [9]: 49 min; IC50 (Cytochrome P450 3A4 [5]): 10000 nM; half-life [10]: 39 min
CN1CCC(Oc2ccc(/C=C/c3n[nH]c4cc([C@@H]5C[C@@]56C(=O)Nc5ccccc56)ccc34)cc2)CC1,–,–,–,–,–,770 nM,2400 nM,–,–,–,–,–,920 nM,2 nM,–,–
CN(C)Cc1ccc(/C=C/c2n[nH]c3cc([C@@H]4C[C@@]45C(=O)Nc4ccccc45)ccc23)cc1 (racemic),–,–,28000 nM,–,–,1900 nM,–,–,–,–,–,–,–,–,–,GI50 (MDA-MB-231): 12000 nM
COc1ccc2c(c1)[C@]1(C[C@H]1c1ccc3c(/C=C/c4ccc(CN5CCOCC5)cc4)n[nH]c3c1)C(=O)N2 (racemic),–,–,–,–,–,–,–,–,–,–,–,–,–,–,–,GI50 (HCC1954): 7300 nM; GI50 (MCF7): 10 nM; GI50 (MDA-MB-231): 14000 nM; GI50 (MDA-MB-468): 6 nM
